According to patent publication US20170362388A1, “Disulfide Polymers and Methods of Use” (The Brigham and Women's Hospital, Inc., priority 2014, published 2017):
Converted amounts (≈) assume the structure as drawn.

Assays:
Hela and DU145 cells = test: In vitro anticancer performance of docetaxel-loaded NPs, alamar blue; type: cell-based
Protocol: Hela, MCF-7, A549, and DU145 cells were used to evaluate in vitro anticancer performance of docetaxel-loaded NPs (Cys-OMe-8/Cys-8E NPs with 10 wt % docetaxel loaded with docetaxel concentration ranging from 1 ng/ml to 500 ng/mL). Hela, MCF-7, A549, and DU145 cells were used. Cells (5,000 cells/well) were seeded in 96-well plates the day before use, and cultured according to recommendations from ATCC. Cells were treated with different concentrations of free docetaxel or docetaxel loaded NP for 4 h or 48 h (N=5). For the 4 h experiment, treated cells were washed twice with PBS buffer and the plate was incubated for another 44 h after replacement of fresh medium. Cell viability at 48 h was determined by alamar blue assay. As a control, the polymer cytotoxicity on Hela cells was ascertained using empty NPs.
In FIGS. 24B and 24D: DU145 cells were treated with docetaxel-loaded NPs for 4 h and 48 h, respectively.
The Alamar blue assay was used to evaluate the NP cytotoxicity. Briefly, 10% 0.1 mg/mL alamar blue was first added into each well and the plate was incubated for another 2 h. Then the fluorescence intensity was measured by a microplate reader (excitation/emission=530 nm/590 nm).

[1] = tested on: A549 Human Lung Carcinoma Xenograft; test: Antitumor efficacy of docetaxel-loaded NPs; type: in vivo, mice; details: 5 mg/kg docetaxel equivalent, iv tail vein, two injections
Protocol: A549 cell suspension (100 μL, equivalent to 5×10^6 cells) was first mixed with 100 μL Matrigel (BD scientific Co.), then subcutaneously injected into the right flank of 5-week-old female athymic nude mice (Charles River). The treatment was initiated on the 9th day, when solid tumor reached ˜100 mm^3. Tumor-bearing mice were divided into 4 groups and injected […] on the 9th and 23rd days after tumor inoculation with: (i) 1× PBS (ii) docetaxel 5 mg/kg (MTD), (iii) Cys-OMe-8/Cys-8E NPs at a docetaxel equivalent dose of 5 mg/kg (MTD), (iv) Cys-OMe-8/Cys-8E NPs at a docetaxel equivalent dose of 10 mg/kg. Control or drugs were administered by intravenous injection in the lateral tail vein (10 μL per g of body weight). Tumor dimension and body weight were recorded every other day. Tumor volume was calculated as follows: Volume [mm^3]=[…]. Mice were regularly monitored (every other day) for physical performance and were euthanized upon exceeding 15% weight loss, over 1500 mm^3 volume or if tumor ulceration was observed. Prior to the experiment, the maximum tolerated dose (MTD) of free docetaxel was established in normal Balb/c mice at 5 mg/kg. Tumor volumes at Day 30 were compared using the ANOVA analysis.
FIG. 30 is a plot of the antitumor effects of docetaxel-loaded Cys-OMe-8/Cys-8E nanoparticles in A549 tumor bearing mice. […]

Maximum tolerated dose = details: mouse, in vivo; normal Balb/c mice

For `CC(=O)O[C@@]12CO[C@@H]1C[C@H](O)[C@@]1(C)C(=O)[C@H](O)C3=C(C)[C@@H](OC(=O)[C@H](O)[C@@H](NC(=O)OC(C)(C)C)c4ccccc4)C[C@@](O)([C@@H](OC(=O)c4ccccc4)[C@H]21)C3(C)C` [docetaxel], the IC50 (Hela and DU145 cells; 4 h treatment, viability at 48 h) was ~0.1 µg/mL (≈ 0.124 µM), the IC50 (Hela and DU145 cells; 48 h treatment) was ~0.005 µg/mL (≈ 0.00619 µM) and the Tumor inhibition [1] was “only limited tumor inhibition”. The MTD (Maximum tolerated dose) was 5 mg/kg.
